Experimental data: patent US20250289814A1, “COMPOUNDS AS PARP1 INHIBITIORS” (NINGBO NEWBAY TECHNOLOGY DEVELOPMENT CO., LTD., priority 2022, published 2025)
Like-named read-outs stand apart in the source and are kept apart here.

What was measured:
[1] = target: Recombinant full length PARP1 (Homo sapiens (Human), UniProt P09874); test: FP assay PARP1 (fluorescence anisotropy probe displacement); format: binding; details: 20 nM PARP1, 8 nM fluorescent probe, 4 h, room temperature
Method: (§1) FP experiments were carried out at room temperature using no-binding black 384-well microplates. Recombinant full length PARP1 and PARP2 proteins produced in house were diluted to 20 nM and 60 nM, respectively, with assay buffer (50 mM Tris pH 8, 0.001% Triton X100, 10 mM MgCl2, and 150 mM NaCl) and incubated for 4 h with an equivalent volume of the 8 nM fluorescent probe diluted with assay buffer. Fluorescence anisotropy of the probe when bound to the proteins was measured in the presence of test compounds or solvent control and the effect on anisotropy determined. Polarization values were read using an Envision plate reader using excitation and emission wavelengths of 590 and 630 nm, respectively. All FP values are expressed as mP units. Inhibition ratio was calculated using readout (mP) following the equation as below: […]
(§2) % inhibition values for different test compound concentrations were calculated and fitted to a four parameter logistic plot in order to determine the IC50 value using XLfit.

[2] = test system: DLD1-BRCA2−/− cells; test: Cell proliferation assay in DLD1-BRCA2−/− cell lines (CellTiter-Glo, 7 days); format: cell-based
Method: BRCA2 (−/−) cells cultured in RPMI 1640+10% FBS were harvested and diluted to a density of 1×10^4 cells/mL and 2×10^4 cells/mL, respectively. Cells (40 μL/well) were seeded into 384-well cell culture plates. Plates were covered and incubated at 37° C., 5% CO2 overnight prior to the addition of test compounds or vehicle. The plates were then incubated at 37° C., 5% CO2 for 7 days. On day 8, the plates were removed from incubator and equilibrated at room temperature for 15 minutes. CellTiter-Glo (40 μL, at 1:1 to culture medium) is added into each well and the plates were placed at room temperature for 30 min. Luminescence was measured using an Envision plate reader. The resultant data were analysed as follows; where LC is culture medium without cells:
% inhibition values for different test compound concentrations were calculated and fitted to a four parameter logistic plot in order to determine the IC50 value using XLfit

[3] = target: Recombinant full length PARP2 (Homo sapiens (Human), UniProt Q9UGN5); test: FP assay PARP2 (fluorescence anisotropy probe displacement); format: binding; details: 60 nM PARP2, 8 nM fluorescent probe, 4 h, room temperature
Chain of Recombinant full length PARP2 (Q9UGN5 whole entry): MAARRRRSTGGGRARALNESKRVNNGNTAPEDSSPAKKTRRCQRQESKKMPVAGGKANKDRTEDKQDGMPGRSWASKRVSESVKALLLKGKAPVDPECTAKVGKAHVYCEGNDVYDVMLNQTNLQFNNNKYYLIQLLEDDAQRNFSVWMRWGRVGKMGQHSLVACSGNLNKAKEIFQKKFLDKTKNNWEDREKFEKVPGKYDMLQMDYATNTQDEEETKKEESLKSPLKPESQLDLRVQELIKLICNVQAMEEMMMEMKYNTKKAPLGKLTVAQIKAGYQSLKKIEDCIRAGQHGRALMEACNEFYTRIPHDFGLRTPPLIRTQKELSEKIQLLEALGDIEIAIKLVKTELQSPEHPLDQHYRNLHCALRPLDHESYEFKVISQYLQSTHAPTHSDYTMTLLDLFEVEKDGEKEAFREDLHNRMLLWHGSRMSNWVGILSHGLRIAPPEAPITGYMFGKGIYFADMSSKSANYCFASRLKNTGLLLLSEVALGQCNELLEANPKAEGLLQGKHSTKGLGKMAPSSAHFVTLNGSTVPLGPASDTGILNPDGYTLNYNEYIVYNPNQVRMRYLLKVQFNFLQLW
Method: as §1, §2

[4] = Caco2 (A-B/B-A) permeability; format: in vitro ADME; details: human; for efflux ratio at 120 min, 5 μM: Caco-2, pH 7.4, PappB-A/PappA-B, read-out: Caco2 efflux ratio (ER); for Papp A→B at 120 min, 5 μM: Caco-2, pH 7.4, apical-to-basolateral, read-out: Caco2 A-B apparent permeability (Papp); for Papp A→B at 120 min, 5 μM / Papp B→A at 120 min, 5 μM: HBSS pH 7.4, 120 min, 37° C.; for Papp B→A at 120 min, 5 μM: Caco-2, pH 7.4, basolateral-to-apical, read-out: Caco2 B-A apparent permeability (Papp)
Method: The apical-to-basolateral (A-B) and basolateral-to-apical (B-A) transport of 5 μM test compounds in HBSS (10 mM HEPES, pH 7.4) was measured across Caco-2 cell monolayers (cells sourced from American Type Culture Collection, Manassas, Virgina). Duplicate incubations were performed at approximately 37° C. for 120 min, with functionality of the test system confirmed using 5 μM propranolol and digoxin as control compounds. Aliquots (50 μL) from both apical and basolateral wells were transferred into two fresh 96-well plates and quenched with acetonitrile solution containing analytical internal standards. Samples were vortexed mixed, centrifuged and a 100 μL aliquot of the resulting supernatant mixed with an equal volume of ultra-pure water prior to analysis by UPLC-MS/MS. The concentrations of test compound and control compounds in the incubation medium of donor and receiver compartments at the beginning and the end of the incubation period were used to calculate the apparent permeability (Papp) from A-B and B-A directions. The efflux ratio (ER) was expressed as PappB-A/PappA-B. The integrity of the cell monolayers after 2 hours incubation was confirmed using the marker reagent Lucifer yellow.

Chain of Recombinant full length PARP1 (P09874 whole entry): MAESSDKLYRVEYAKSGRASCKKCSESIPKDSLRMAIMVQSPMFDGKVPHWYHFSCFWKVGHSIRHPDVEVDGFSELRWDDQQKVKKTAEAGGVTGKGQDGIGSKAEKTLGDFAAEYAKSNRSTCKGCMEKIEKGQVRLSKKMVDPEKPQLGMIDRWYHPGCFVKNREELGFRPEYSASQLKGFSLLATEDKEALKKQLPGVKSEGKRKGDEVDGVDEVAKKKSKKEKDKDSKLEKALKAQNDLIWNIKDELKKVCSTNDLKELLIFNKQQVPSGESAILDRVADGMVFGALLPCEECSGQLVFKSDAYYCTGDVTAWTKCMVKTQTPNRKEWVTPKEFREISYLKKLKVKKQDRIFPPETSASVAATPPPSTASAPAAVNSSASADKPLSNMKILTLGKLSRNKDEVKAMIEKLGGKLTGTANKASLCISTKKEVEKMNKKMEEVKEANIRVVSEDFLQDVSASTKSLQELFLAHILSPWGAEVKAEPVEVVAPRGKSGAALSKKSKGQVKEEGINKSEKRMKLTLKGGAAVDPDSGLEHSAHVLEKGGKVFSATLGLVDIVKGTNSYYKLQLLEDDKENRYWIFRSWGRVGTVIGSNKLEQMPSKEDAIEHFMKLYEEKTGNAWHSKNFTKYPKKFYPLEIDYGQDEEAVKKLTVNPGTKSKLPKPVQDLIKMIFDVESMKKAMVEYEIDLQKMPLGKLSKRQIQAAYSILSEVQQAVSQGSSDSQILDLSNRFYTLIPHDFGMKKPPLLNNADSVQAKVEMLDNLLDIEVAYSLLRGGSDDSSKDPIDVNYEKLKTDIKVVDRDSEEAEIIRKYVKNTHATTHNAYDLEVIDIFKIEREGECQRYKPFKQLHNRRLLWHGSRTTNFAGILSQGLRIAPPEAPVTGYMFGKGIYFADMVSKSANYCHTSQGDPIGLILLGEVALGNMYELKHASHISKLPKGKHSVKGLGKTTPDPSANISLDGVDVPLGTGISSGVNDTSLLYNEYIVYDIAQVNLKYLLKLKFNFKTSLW

| SMILES | IC50 [1] [nM] | IC50 ([2]; Homo sapiens, DLD-1, 168 h) [nM] | IC50 [3] [nM] | efflux ratio at 120 min, 5 μM [4] | Papp A→B at 120 min, 5 μM [4] [×10⁻⁶ cm/s] | Papp B→A at 120 min, 5 μM [4] [×10⁻⁶ cm/s] | IC50 [2] [nM] |
| --- | --- | --- | --- | --- | --- | --- | --- |
| CCc1cc2ncc(C(C)N3CC(Oc4ccc(C(=O)NC)nc4)C3)cc2[nH]c1=O (racemic) [Compound 43, 5-((1-(1-(7-ethyl-6-oxo-5,6-dihydro-1,5-naphthyridin-3-yl)ethyl)azetidin-3-yl)oxy)-N-methylpicolinamide] | 5.9 | 12.2 | 3760 |  |  |  |  |
| CCc1cc2ncc([C@H](C)N3CC[C@@H](Oc4ccc(C(=O)NC)nc4)C3)cc2[nH]c1=O (single isomer, unassigned) [Compound 12, 5-(((R)-1-((enantiomer 1 or 2)-1-(7-ethyl-6-oxo-5,6-dihydro-1,5-naphthyridin-3-yl)ethyl)pyrrolidin-3-yl)oxy)-N-methylpicolinamide] |  | 22.5 |  | 10.3 | 3.44 | 35.5 |  |
| CCc1nc2ccc([C@H](C)N3CC(Oc4ccc(C(=O)NC)nc4F)C3)cc2[nH]c1=O (single isomer, unassigned) [Compound 56, (enantiomer 1 or 2)-5-((1-(1-(2-ethyl-3-oxo-3,4-dihydroquinoxalin-6-yl)ethyl)azetidin-3-yl)oxy)-6-fluoro-N-methylpicolinamide] | 11 | 10.9 |  | 3.01 | 8.54 | 25.8 |  |
| CNC(=O)c1ccc(O[C@@H]2CCN(Cc3cnc4cc(C5CC5)c(=O)[nH]c4c3)C2)cn1 (single isomer, unassigned) [Compound 60, (enantiomer 1 or 2)-5-((1-((7-cyclopropyl-6-oxo-5,6-dihydro-1,5-naphthyridin-3-yl)methyl)pyrrolidin-3-yl)oxy)-N-methylpicolinamide] | 64.3 |  | > 10000 |  |  |  | > 1000 |
| CNC(=O)c1ccc(O[C@@H]2CCN(Cc3cnc4cc(C5CC5)c(=O)[nH]c4c3)C2)cn1 (single isomer, unassigned) [Compound 61, (enantiomer 1 or 2)-5-((1-((7-cyclopropyl-6-oxo-5,6-dihydro-1,5-naphthyridin-3-yl)methyl)pyrrolidin-3-yl)oxy)-N-methylpicolinamide] | 6.62 |  | > 10000 |  |  |  | 40.7 |
| CCc1cc2ncc(CN3CC[C@@H](N(C)c4ccc(C(=O)NC)nc4)C3)cc2[nH]c1=O (single isomer, unassigned; enantiomer 2) [Compound 17, (enantiomer 2)-5-((1-((7-ethyl-6-oxo-5,6-dihydro-1,5-naphthyridin-3-yl)methyl)pyrrolidin-3-yl)(methyl)amino)-N-methylpicolinamide] |  |  |  | 9.14 | 3.64 | 33.3 | 195 |
| CCc1cc2ncc(CN3CC(N(C)c4ccc(C(=O)NC)nc4)C3)cc2[nH]c1=O [Compound 3, 5-((1-((7-ethyl-6-oxo-5,6-dihydro-1,5-naphthyridin-3-yl)methyl)azetidin-3-yl)(methyl)amino)-N-methylpicolinamide] | 4.3 | 221 | > 10000 |  |  |  |  |
| CCc1cc2ncc(CN3CCC(Oc4ccc(C(=O)NC)nc4)C3)cc2[nH]c1=O (stereo not drawn) [Compound 9, 5-((1-((7-ethyl-6-oxo-5,6-dihydro-1,5-naphthyridin-3-yl)methyl)pyrrolidin-3-yl)oxy)-N-methylpicolinamide] |  | 14.3 |  | 10.3 | 3.55 | 36.5 |  |
| CCc1cc2ncc(CN3CCC(N(C)c4ccc(C(=O)NC)nc4)CC3)cc2[nH]c1=O [Compound 31, 5-((1-((7-ethyl-6-oxo-5,6-dihydro-1,5-naphthyridin-3-yl)methyl)piperidin-4-yl)(methyl)amino)-N-methylpicolinamide] |  | > 1000 |  | 8.81 | 3.5 | 30.9 |  |
| CCc1cc2ncc(CN3CC4CC3CN4c3ccc(C(=O)NC)nc3)cc2[nH]c1=O (stereo not drawn) [Compound 37, 5-(5-((7-ethyl-6-oxo-5,6-dihydro-1,5-naphthyridin-3-yl)methyl)-2,5-diazabicyclo [2.2.1]heptan-2-yl)-N-methylpicolinamide] |  | > 1000 |  | 18.8 | 1.61 | 30.2 |  |
| CCc1cc2ncc(CN3C4CCC3CN(c3ccc(C(=O)NC)nc3)C4)cc2[nH]c1=O [Compound 38, 5-(8-((7-ethyl-6-oxo-5,6-dihydro-1,5-naphthyridin-3-yl)methyl)-3,8-diazabicyclo [3.2.1]octan-3-yl)-N-methylpicolinamide] |  | > 1000 |  |  |  |  |  |
| CCc1cc2ncc(CN3CC4CCC(C3)N4c3ccc(C(=O)NC)nc3)cc2[nH]c1=O [Compound 39, 5-(3-((7-ethyl-6-oxo-5,6-dihydro-1,5-naphthyridin-3-yl)methyl)-3,8-diazabicyclo [3.2.1]octan-8-yl)-N-methylpicolinamide] |  | > 1000 |  |  |  |  |  |
| CCc1cc2ncc(CN3CC4CN(c5ccc(C(=O)NC)nc5)CC4C3)cc2[nH]c1=O (stereo not drawn) [Compound 40, 5-(5-((7-ethyl-6-oxo-5,6-dihydro-1,5-naphthyridin-3-yl)methyl)hexahydropyrrolo [3,4-c]pyrrol-2(1H)-yl)-N-methylpicolinamide] |  | 181 |  | 8.32 | 4.29 | 35.7 |  |
| CNC(=O)c1ccc(N2CC3CN(Cc4cnc5cc(C)c(=O)[nH]c5c4)CC3C2)cn1 (stereo not drawn) [Compound 41, N-methyl-5-(5-((7-methyl-6-oxo-5,6-dihydro-1,5-naphthyridin-3-yl)methyl)hexahydropyrrolo[3,4-c]pyrrol-2(1H)-yl)picolinamide] |  | > 1000 |  |  |  |  |  |
| CCc1cc2ncc(CN3CC4CCN(c5ccc(C(=O)NC)nc5)C4C3)cc2[nH]c1=O (stereo not drawn) [Compound 42, 5-(5-((7-ethyl-6-oxo-5,6-dihydro-1,5-naphthyridin-3-yl)methyl)hexahydropyrrolo[3,4-b]pyrrol-1(2H)-yl)-N-methylpicolinamide] |  | > 1000 |  | 7.71 | 4.57 | 35.3 |  |
| CCc1nc2ccc(C(C)N3CC(Oc4ccc(-n5ccnn5)nc4)C3)cc2[nH]c1=O (stereo not drawn) [Compound 54, 7-(1-(3-((6-(1H-1,2,3-triazol-1-yl)pyridin-3-yl)oxy)azetidin-1-yl)ethyl)-3-ethylquinoxalin-2(1H)-one] | 2.12 | 38.5 |  |  |  |  |  |
| CCc1nc2ccc(C(C)N3CC(Oc4ccc(C(=O)NC)nc4F)C3)c(F)c2[nH]c1=O (stereo not drawn) [Compound 55, 5-((1-(1-(2-ethyl-5-fluoro-3-oxo-3,4-dihydroquinoxalin-6-yl)ethyl)azetidin-3-yl)oxy)-6-fluoro-N-methylpicolinamide] | 28.1 | 554 |  | 1.5 | 9.92 | 14.8 |  |
| CNC(=O)c1ccc(O[C@@H]2CCN(Cc3cnc4cc(C)c(=O)[nH]c4c3)C2)cn1 [Compound 59, (R)-N-methyl-5-((1-((7-methyl-6-oxo-5,6-dihydro-1,5-naphthyridin-3-yl)methyl)pyrrolidin-3-yl)oxy)picolinamide] |  | 215 |  |  |  |  |  |
| CCc1cc2cnc(CN3CC[C@@H](Oc4ccc(C(=O)NC)nc4F)C3)cc2[nH]c1=O [Compound 62, (R)-5-((1-((3-ethyl-2-oxo-1,2-dihydro-1,6-naphthyridin-7-yl)methyl)pyrrolidin-3-yl)oxy)-6-fluoro-N-methylpicolinamide] |  | 1.6 |  | 12.7 | 2.46 | 31.2 |  |
